Data from PMC8037182, “Solvothermal Synthesis of Multiple Dihydropyrimidinones at a Time as Inhibitors of Eg5” (Molecules, 2021).

Assays:
T24 cell line = test: Cytotoxicity MTS assay, T24 cell line; format: cell-based; details: for OD490 Mean / OD490 Well 1 / OD490 Well 2 / OD490 Well 3: T24 cell line, first assay;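 on OD490 Mean: blank control wells received 0.025% DMSO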;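 on OD490 Well 1: blank control wells received 0.025% DMSO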;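 on OD490 Well 2: blank control wells received 0.025% DMSO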;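 on OD490 Well 3: blank control wells received 0.025% DMSO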
In short: (§1)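 Cells seeded at 1000 per well, grown 24 h, then exposed to compound (0.5–100 µM final) for 24 h with 0.025% DMSO blank. MTS reagent added for 2 h at 37 °C, absorbance read at 490 nm; IC50 from non-linear regression of % viability versus concentration, three independent duplicate experiments.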

Caco-2 cell line = test: Cytotoxicity MTS assay, Caco-2 cell line; format: cell-based; details: for OD490 Mean / OD490 Well 1 / OD490 Well 2 / OD490 Well 3: Caco-2 cell line
In short: as §1

With `COC(=O)c1[nH]c(C2NC(=S)NC(C)=C2C(=O)c2ccccc2)c(C(=O)OC)c1C` (stereo not shown) [D14] the IC50 (T24 cell line; MTS assay, 24 h exposure) was over 150 µM, the “OD490 Mean” value (T24 cell line; 0.5μM) was 1.1342 and the “OD490 Well 1” value (T24 cell line; 0.5μM) was 1.0996. The “OD490 Well 2” value (T24 cell line; 0.5μM) was 1.1541, the “OD490 Well 3” value (T24 cell line; 0.5μM) was 1.1489 and the “OD490 Mean” value (T24 cell line; 1μM) was 1.3301. The “OD490 Well 1” value (T24 cell line; 1μM) was 1.2266, the “OD490 Well 2” value (T24 cell line; 1μM) was 1.4478 and the “OD490 Well 3” value (T24 cell line; 1μM) was 1.3160. The “OD490 Mean” value (T24 cell line; 10μM) was 1.2661, the “OD490 Well 1” value (T24 cell line; 10μM) was 1.2502 and the “OD490 Well 2” value (T24 cell line; 10μM) was 1.2630. For the same compound, the “OD490 Well 3” value (T24 cell line; 10μM) was 1.2850, the “OD490 Mean” value (T24 cell line; 25μM) was 1.2456 and the “OD490 Well 1” value (T24 cell line; 25μM) was 1.2555. The “OD490 Well 2” value (T24 cell line; 25μM) was 1.2167, the “OD490 Well 3” value (T24 cell line; 25μM) was 1.2646 and the “OD490 Mean” value (T24 cell line; 50μM) was 1.2309. The “OD490 Well 1” value (T24 cell line; 50μM) was 1.2932, the “OD490 Well 2” value (T24 cell line; 50μM) was 1.1700 and the “OD490 Well 3” value (T24 cell line; 50μM) was 1.2295. The “OD490 Mean” value (T24 cell line; 100μM) was 1.4227, the “OD490 Well 1” value (T24 cell line; 100μM) was 1.3732 and the “OD490 Well 2” value (T24 cell line; 100μM) was 1.4320. For the same compound, the “OD490 Well 3” value (T24 cell line; 100μM) was 1.4629, the “OD490 Mean” value (Caco-2 cell line; 0.5μM, first assay) was 0.5996 and the “OD490 Well 1” value (Caco-2 cell line; 0.5μM, first assay) was 0.5553. The “OD490 Well 2” value (Caco-2 cell line; 0.5μM, first assay) was 0.5560, the “OD490 Well 3” value (Caco-2 cell line; 0.5μM, first assay) was 0.6875 and the “OD490 Mean” value (Caco-2 cell line; 0.5μM, second assay) was 0.6725. The “OD490 Well 1” value (Caco-2 cell line; 0.5μM, second assay) was 0.6506, the “OD490 Well 2” value (Caco-2 cell line; 0.5μM, second assay) was 0.6879 and the “OD490 Well 3” value (Caco-2 cell line; 0.5μM, second assay) was 0.6791. The “OD490 Mean” value (Caco-2 cell line; 0.5μM, third assay) was 0.6452, the “OD490 Well 1” value (Caco-2 cell line; 0.5μM, third assay) was 0.6120 and the “OD490 Well 2” value (Caco-2 cell line; 0.5μM, third assay) was 0.6285. For the same compound, the “OD490 Well 3” value (Caco-2 cell line; 0.5μM, third assay) was 0.6952, the “OD490 Mean” value (Caco-2 cell line; 1μM, second assay) was 0.6718 and the “OD490 Well 1” value (Caco-2 cell line; 1μM, second assay) was 0.6251. For the same compound, the “OD490 Well 2” value (Caco-2 cell line; 1μM, second assay) was 0.6916, the “OD490 Well 3” value (Caco-2 cell line; 1μM, second assay) was 0.6987 and the “OD490 Mean” value (Caco-2 cell line; 1μM, third assay) was 0.6246. For the same compound, the “OD490 Well 1” value (Caco-2 cell line; 1μM, third assay) was 0.6324, the “OD490 Well 2” value (Caco-2 cell line; 1μM, third assay) was 0.6014 and the “OD490 Well 3” value (Caco-2 cell line; 1μM, third assay) was 0.6401. For the same compound, the “OD490 Mean” value (Caco-2 cell line; 10μM, first assay) was 0.6223, the “OD490 Well 1” value (Caco-2 cell line; 10μM, first assay) was 0.6178 and the “OD490 Well 2” value (Caco-2 cell line; 10μM, first assay) was 0.6082. The “OD490 Well 3” value (Caco-2 cell line; 10μM, first assay) was 0.6409, the “OD490 Mean” value (Caco-2 cell line; 10μM, second assay) was 0.6139 and the “OD490 Well 1” value (Caco-2 cell line; 10μM, second assay) was 0.6136. The “OD490 Well 2” value (Caco-2 cell line; 10μM, second assay) was 0.6117, the “OD490 Well 3” value (Caco-2 cell line; 10μM, second assay) was 0.6164 and the “OD490 Mean” value (Caco-2 cell line; 10μM, third assay) was 0.6241. The “OD490 Well 1” value (Caco-2 cell line; 10μM, third assay) was 0.5987, the “OD490 Well 2” value (Caco-2 cell line; 10μM, third assay) was 0.6312 and the “OD490 Well 3” value (Caco-2 cell line; 10μM, third assay) was 0.6424. For the same compound, the “OD490 Mean” value (Caco-2 cell line; 25μM, first assay) was 0.5939, the “OD490 Well 1” value (Caco-2 cell line; 25μM, first assay) was 0.5396 and the “OD490 Well 2” value (Caco-2 cell line; 25μM, first assay) was 0.5578. For the same compound, the “OD490 Well 3” value (Caco-2 cell line; 25μM, first assay) was 0.6844, the “OD490 Mean” value (Caco-2 cell line; 25μM, second assay) was 0.5279 and the “OD490 Well 1” value (Caco-2 cell line; 25μM, second assay) was 0.4988. The “OD490 Well 2” value (Caco-2 cell line; 25μM, second assay) was 0.5384, the “OD490 Well 3” value (Caco-2 cell line; 25μM, second assay) was 0.5466 and the “OD490 Mean” value (Caco-2 cell line; 25μM, third assay) was 0.5570. The “OD490 Well 1” value (Caco-2 cell line; 25μM, third assay) was 0.5324, the “OD490 Well 2” value (Caco-2 cell line; 25μM, third assay) was 0.5784 and the “OD490 Well 3” value (Caco-2 cell line; 25μM, third assay) was 0.5601. For the same compound, the “OD490 Mean” value (Caco-2 cell line; 50μM, first assay) was 0.5128, the “OD490 Well 1” value (Caco-2 cell line; 50μM, first assay) was 0.5310 and the “OD490 Well 2” value (Caco-2 cell line; 50μM, first assay) was 0.5192. The “OD490 Well 3” value (Caco-2 cell line; 50μM, first assay) was 0.4883, the “OD490 Mean” value (Caco-2 cell line; 50μM, second assay) was 0.5200 and the “OD490 Well 1” value (Caco-2 cell line; 50μM, second assay) was 0.5229. The “OD490 Well 2” value (Caco-2 cell line; 50μM, second assay) was 0.564, the “OD490 Well 3” value (Caco-2 cell line; 50μM, second assay) was 0.4732 and the “OD490 Mean” value (Caco-2 cell line; 50μM, third assay) was 0.4713. The “OD490 Well 1” value (Caco-2 cell line; 50μM, third assay) was 0.4985, the “OD490 Well 2” value (Caco-2 cell line; 50μM, third assay) was 0.4532 and the “OD490 Well 3” value (Caco-2 cell line; 50μM, third assay) was 0.4621. The “OD490 Mean” value (Caco-2 cell line; 100μM, first assay) was 0.4642, the “OD490 Well 1” value (Caco-2 cell line; 100μM, first assay) was 0.4537 and the “OD490 Well 2” value (Caco-2 cell line; 100μM, first assay) was 0.4965. For the same compound, the “OD490 Well 3” value (Caco-2 cell line; 100μM, first assay) was 0.4424, the “OD490 Mean” value (Caco-2 cell line; 100μM, second assay) was 0.4817 and the “OD490 Well 1” value (Caco-2 cell line; 100μM, second assay) was 0.4326. The “OD490 Well 2” value (Caco-2 cell line; 100μM, second assay) was 0.5246, the “OD490 Well 3” value (Caco-2 cell line; 100μM, second assay) was 0.4878 and the “OD490 Mean” value (Caco-2 cell line; 100μM, third assay) was 0.4653. For the same compound, the “OD490 Well 1” value (Caco-2 cell line; 100μM, third assay) was 0.4632, the “OD490 Well 2” value (Caco-2 cell line; 100μM, third assay) was 0.4397 and the “OD490 Well 3” value (Caco-2 cell line; 100μM, third assay) was 0.4930. For the same compound, the IC50 (Caco-2 cell line; MTS assay, 24 h exposure) was 103 µM.
